Measured values taken from patent US9938273B2 (Plexxikon Inc., priority 2015, dated 2018).

Legend:
[1] = tested on: MOLM-14 D835Y cells, FLT3 ITD and FLT3 D835Y; assay: Cell proliferation assay (CellTiter-Glo), MOLM-14 D835Y; assay type: cell-based; conditions: Homo sapiens, 72 h, 3d-Growth, GMean
Method in brief: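 MOLM-14 AML cells (endogenous FLT3 ITD, AC220-selected D835Y or F691L variants) or murine Ba/F3 expressing full-length FLT3 ITD/D835Y, without IL-3 for FLT3 dependence, 1×10^4 cells/well. Eight-point 1:3 series from 1 μM final, 0.2% DMSO, 3 days at 37 °C. CellTiter-Glo luminescence (ATP) gave IC50.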

FLT3-ITD = target: T1, FLT3-ITD (Homo sapiens, UniProt P36888); assay: AlphaScreen kinase assay with recombinant enzyme, FLT3-ITD; assay type: biochemical; conditions: 8pt; read-out: FLT3_ITD 8pt: IC50
T1 sequence (P36888 1-993): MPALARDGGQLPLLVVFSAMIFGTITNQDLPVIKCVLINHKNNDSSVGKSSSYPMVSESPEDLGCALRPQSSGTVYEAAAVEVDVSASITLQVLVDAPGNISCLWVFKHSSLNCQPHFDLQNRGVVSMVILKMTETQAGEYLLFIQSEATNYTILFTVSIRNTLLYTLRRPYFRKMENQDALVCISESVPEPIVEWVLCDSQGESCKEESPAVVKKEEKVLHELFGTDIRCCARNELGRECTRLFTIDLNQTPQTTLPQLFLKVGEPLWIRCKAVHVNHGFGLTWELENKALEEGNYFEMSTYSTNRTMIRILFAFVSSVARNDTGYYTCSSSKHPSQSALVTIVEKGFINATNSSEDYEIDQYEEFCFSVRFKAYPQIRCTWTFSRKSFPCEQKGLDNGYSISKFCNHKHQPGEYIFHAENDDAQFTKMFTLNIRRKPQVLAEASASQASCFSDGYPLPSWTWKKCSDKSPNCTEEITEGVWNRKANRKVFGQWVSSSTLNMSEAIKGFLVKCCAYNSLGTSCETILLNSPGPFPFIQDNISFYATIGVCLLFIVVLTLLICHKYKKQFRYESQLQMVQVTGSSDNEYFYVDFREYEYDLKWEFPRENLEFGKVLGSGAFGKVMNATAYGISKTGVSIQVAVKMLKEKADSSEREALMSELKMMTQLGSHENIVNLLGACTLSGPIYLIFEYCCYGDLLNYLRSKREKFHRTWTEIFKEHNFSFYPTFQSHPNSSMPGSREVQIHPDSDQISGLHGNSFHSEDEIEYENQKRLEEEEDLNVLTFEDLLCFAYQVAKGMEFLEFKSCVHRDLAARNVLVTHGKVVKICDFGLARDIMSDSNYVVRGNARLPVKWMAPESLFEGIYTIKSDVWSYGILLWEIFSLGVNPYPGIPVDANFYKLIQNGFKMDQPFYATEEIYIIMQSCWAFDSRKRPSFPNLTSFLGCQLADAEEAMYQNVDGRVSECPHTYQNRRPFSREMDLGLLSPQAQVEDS
Method in brief: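 Recombinant kinase phosphorylates biotinylated poly(Glu4-Tyr) peptide (30 nM final); streptavidin donor and anti-phosphotyrosine PY20 acceptor beads (10 μg/mL final) give a 580 nm proximity signal on 680 nm excitation. IC50 determinations used a final concentration of 10 μM for FLT3-D835Y/FLT3-ITD and 100 μM for c-KIT.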

Row | IC50 [1] | IC50 (FLT3-ITD) | SMILES
1 | 0.0001 to 10 µM | 0.0001 to 10 µM | Cn1cc(-c2cc3cc(-c4cccc(C(=O)NCC(C)(C)C#N)n4)cnc3[nH]2)ccc1=O [Compound P-0155, N-(2-cyano-2-methyl-propyl)-6-[2-(1-methyl-6-oxo-3-pyridyl)-1H-pyrrolo[2,3-b]pyridin-5-yl]pyridine-2-carboxamide]
2 | 0.0001 to 10 µM | 0.0001 to 10 µM | CC(C)(C#N)CNC(=O)c1cccc(-c2cnc3[nH]c(C4=CCC(F)(F)CC4)cc3c2)n1 [Compound P-0157, N-(2-cyano-2-methyl-propyl)-6-[2-(4,4-difluorocyclohexen-1-yl)-1H-pyrrolo[2,3-b]pyridin-5-yl]pyridine-2-carboxamide]
3 | 0.0001 to 10 µM | 0.0001 to 10 µM | CC(C)(C#N)CNC(=O)c1cccc(-c2cnc3[nH]c(C4=CCSCC4)cc3c2)n1 [Compound P-0159, N-(2-cyano-2-methyl-propyl)-6-[2-(3,6-dihydro-2H-thiopyran-4-yl)-1H-pyrrolo[2,3-b]pyridin-5-yl]pyridine-2-carboxamide]
4 | 0.0001 to 10 µM | 0.0001 to 10 µM | CC(C)(C#N)CNC(=O)c1cccc(-c2cnc3[nH]c(C4=CCS(=O)(=O)CC4)cc3c2)n1 [Compound P-0160, N-(2-cyano-2-methyl-propyl)-6-[2-(1,1-dioxo-3,6-dihydro-2H-thiopyran-4-yl)-1H-pyrrolo[2,3-b]pyridin-5-yl]pyridine-2-carboxamide]
5 | 0.0001 to 10 µM | 0.0001 to 10 µM | CC(C)(C#N)CNC(=O)c1cccc(-c2cnc3[nH]c(C4=CC[S+]([O-])CC4)cc3c2)n1 (stereo not shown) [Compound P-0161, N-(2-cyano-2-methyl-propyl)-6-[2-(1-oxo-3,6-dihydro-2H-thiopyran-4-yl)-1H-pyrrolo[2,3-b]pyridin-5-yl]pyridine-2-carboxamide]
6 | 0.0001 to 10 µM | 0.0001 to 10 µM | CC(C)(C#N)CNC(=O)c1cccc(-c2cnc3[nH]c(C4=CCN(C(=O)C5CC5)CC4)cc3c2)n1 [Compound P-0162, N-(2-cyano-2-methyl-propyl)-6-[2-[1-(cyclopropanecarbonyl)-3,6-dihydro-2H-pyridin-4-yl]-1H-pyrrolo[2,3-b]pyridin-5-yl]pyridine-2-carboxamide]
7 | 0.0001 to 10 µM | 0.0001 to 10 µM | Cc1cc(-c2cc3cc(-c4cccc(C(=O)NC(C)(C)C#N)n4)cnc3[nH]2)cnn1 [Compound P-0163, N-(1-cyano-1-methyl-ethyl)-6-[2-(6-methylpyridazin-4-yl)-1H-pyrrolo[2,3-b]pyridin-5-yl]pyridine-2-carboxamide]
8 | 0.0001 to 10 µM | 0.0001 to 10 µM | CC(C)(C#N)NC(=O)c1cccc(-c2cnc3[nH]c(-c4cnn(C(F)F)c4)cc3c2)n1 [Compound P-0164, N-(2-cyanopropan-2-yl)-6-(2-(1-(difluoromethyl)-1H-pyrazol-4-yl)-1H-pyrrolo[2,3-b]pyridin-5-yl)picolinamide]
9 | 0.0001 to 10 µM | 0.0001 to 10 µM | CC(C)(C#N)NC(=O)c1cccc(-c2cnc3[nH]c(-c4cnn(C5CC5)c4)cc3c2)n1 [Compound P-0165, N-(1-cyano-1-methyl-ethyl)-6-[2-(1-cyclopropylpyrazol-4-yl)-1H-pyrrolo[2,3-b]pyridin-5-yl]pyridine-2-carboxamide]
10 | 0.0001 to 10 µM | 0.0001 to 10 µM | CC(C)(C#N)NC(=O)c1cccc(-c2cnc3[nH]c(-c4ccc(C5CC5)nc4)cc3c2)n1 [Compound P-0168, N-(1-cyano-1-methyl-ethyl)-6-[2-(6-cyclopropyl-3-pyridyl)-1H-pyrrolo[2,3-b]pyridin-5-yl]pyridine-2-carboxamide]
11 | 0.0001 to 10 µM | 0.0001 to 10 µM | CC(C)(C#N)NC(=O)c1cccc(-c2cnc3[nH]c(-c4cnn(CCC#N)c4)cc3c2)n1 [Compound P-0170, 6-[2-[1-(2-cyanoethyl)pyrazol-4-yl]-1H-pyrrolo[2,3-b]pyridin-5-yl]-N-(1-cyano-1-methyl-ethyl)pyridine-2-carboxamide]
12 | 0.0001 to 10 µM | 0.0001 to 10 µM | CC(C)(C#N)NC(=O)c1cccc(-c2cnc3[nH]c(-c4cnn(Cc5ccccc5)c4)cc3c2)n1 [Compound P-0171, 6-[2-(1-benzylpyrazol-4-yl)-1H-pyrrolo[2,3-b]pyridin-5-yl]-N-(1-cyano-1-methyl-ethyl)pyridine-2-carboxamide]
13 | 0.0001 to 10 µM | 0.0001 to 10 µM | COCCn1cc(-c2cc3cc(-c4cccc(C(=O)NC(C)(C)C#N)n4)cnc3[nH]2)cn1 [Compound P-0172, N-(1-cyano-1-methyl-ethyl)-6-[2-[1-(2-methoxyethyl)pyrazol-4-yl]-1H-pyrrolo[2,3-b]pyridin-5-yl]pyridine-2-carboxamide]
14 | 0.0001 to 10 µM | 0.0001 to 10 µM | Cc1nn(C(C)C)cc1-c1cc2cc(-c3cccc(C(=O)NC(C)(C)C#N)n3)cnc2[nH]1 [Compound P-0178, N-(1-cyano-1-methyl-ethyl)-6-[2-(1-isopropyl-3-methyl-pyrazol-4-yl)-1H-pyrrolo[2,3-b]pyridin-5-yl]pyridine-2-carboxamide]

The remaining lines, values behind:

Row | SMILES | IC50 [1] | IC50 (FLT3-ITD)
15 | O=C(NC1(C(F)(F)F)CC1)c1cccc(-c2cnc3[nH]c(-c4ccccc4)cc3c2)n1 [Compound P-0156, 6-(2-phenyl-1H-pyrrolo[2,3-b]pyridin-5-yl)-N-[1-(trifluoromethyl)cyclopropyl]pyridine-2-carboxamide] | 0.0001 to 10 µM | 0.0001 to 10 µM
16 | CC(C)(C#N)NC(=O)c1cccc(-c2cnc3[nH]c(-c4cnc(C5CC5)nc4)cc3c2)n1 [Compound P-0166, N-(1-cyano-1-methyl-ethyl)-6-[2-(2-cyclopropylpyrimidin-5-yl)-1H-pyrrolo[2,3-b]pyridin-5-yl]pyridine-2-carboxamide] | 0.0001 to 10 µM | 0.0001 to 10 µM
17 | Cc1nc(C(C)C)sc1-c1cc2cc(-c3cccc(C(=O)NC(C)(C)C#N)n3)cnc2[nH]1 [Compound P-0169, N-(1-cyano-1-methyl-ethyl)-6-[2-(2-isopropyl-4-methyl-thiazol-5-yl)-1H-pyrrolo[2,3-b]pyridin-5-yl]pyridine-2-carboxamide] | 0.0001 to 10 µM | 0.0001 to 10 µM
18 | CC(C)(C#N)NC(=O)c1cccc(-c2cnc3[nH]c(-c4cnn(C5CCOC5)c4)cc3c2)n1 (stereo not shown) [Compound P-0173, N-(1-cyano-1-methyl-ethyl)-6-[2-(1-tetrahydrofuran-3-ylpyrazol-4-yl)-1H-pyrrolo[2,3-b]pyridin-5-yl]pyridine-2-carboxamide] | 0.0001 to 10 µM | 0.0001 to 10 µM
19 | CC(C)(C#N)NC(=O)c1cccc(-c2cnc3[nH]c(-c4cnn(CCN5CCOCC5)c4)cc3c2)n1 [Compound P-0174, N-(1-cyano-1-methyl-ethyl)-6-[2-[1-(2-morpholinoethyl)pyrazol-4-yl]-1H-pyrrolo[2,3-b]pyridin-5-yl]pyridine-2-carboxamide] | 0.0001 to 10 µM | 0.0001 to 10 µM
20 | C#Cc1cc2cc(-c3cccc(C(=O)NC(C)(C)C#N)n3)cnc2[nH]1 [Compound P-0175, N-(1-cyano-1-methyl-ethyl)-6-(2-ethynyl-1H-pyrrolo[2,3-b]pyridin-5-yl)pyridine-2-carboxamide] | 0.0001 to 10 µM | 0.0001 to 10 µM
21 | CC(C)(C#N)NC(=O)c1cccc(-c2cnc3[nH]c(C#Cc4ccccc4)cc3c2)n1 [Compound P-0176, N-(1-cyano-1-methyl-ethyl)-6-[2-(2-phenylethynyl)-1H-pyrrolo[2,3-b]pyridin-5-yl]pyridine-2-carboxamide] | 0.0001 to 10 µM | 0.0001 to 10 µM
22 | Cn1cncc1C#Cc1cc2cc(-c3cccc(C(=O)NC(C)(C)C#N)n3)cnc2[nH]1 [Compound P-0177, N-(1-cyano-1-methyl-ethyl)-6-[2-[2-(3-methylimidazol-4-yl)ethynyl]-1H-pyrrolo[2,3-b]pyridin-5-yl]pyridine-2-carboxamide] | 0.0001 to 10 µM | 0.0001 to 10 µM
23 | CC(C)(NC(=O)c1cccc(-c2cnc3[nH]c(C4=CCN(C(=O)C5CC5)C4)cc3c2)n1)C(N)=O [Compound P-0179, N-(2-amino-1,1-dimethyl-2-oxo-ethyl)-6-[2-[1-(cyclopropanecarbonyl)-2,5-dihydropyrrol-3-yl]-1H-pyrrolo[2,3-b]pyridin-5-yl]pyridine-2-carboxamide] | 0.0001 to 10 µM | 0.0001 to 10 µM
